Laboratory results from publication PMC6792352, “Limited Chemical Structural Diversity Found to Modulate Thyroid Hormone Receptor in the Tox21 Chemical Library” (Environmental Health Perspectives, 2019).
Structures can show the parent of a compound that is named as a salt.

assay: in vitro; conditions: rat, gh3-tre-luc cells, AC50 (uM) modified / 1000

Structure (SMILES)	CC50 at 24 h
CCC(C)(C)C1CCCCC1OC(C)=O (stereo not shown) [2-(2-Methylbutan-2-yl)cyclohexyl acetate]	> 90 µM
NC(=O)Nc1ccc(Cl)cc1 [4-Chlorophenylurea]	> 90 µM
O=C(Cl)/C=C/C(=O)Cl [Fumaryl chloride]	> 90 µM
CCCCC(CC)CN1C(=O)[C@@H]2[C@H](C1=O)[C@@H]1C=C[C@H]2C1 (stereo partly shown) [Octylbicycloheptenedicarboximide]	53.7 µM
CC(C)Cc1ccc(C(C)C(=O)O)cc1 (stereo not shown) [Ibuprofen]	> 90 µM
NNc1nnc(Cc2ccncc2)c2ccccc12 [Picodralazine]	> 50 µM
CC(C)(C)CC(C)(C)c1ccccc1O [(1,1,3,3-Tetramethylbutyl)phenol (all isomers)]	31.1 µM
CCOc1ccccc1N [2-Ethoxyaniline]	> 90 µM
C1COC(NC(C2CC2)C2CC2)=N1 [Rilmenidine]	> 50 µM
C=CCc1ccc(O)c(OC)c1 [Eugenol]	> 90 µM
COC(C)=O [Methyl acetate]	> 90 µM
COC(=O)CCc1ccc(OCC(O)CNC(C)C)cc1 (stereo not shown) [Esmolol hydrochloride]	> 50 µM
CN(C)CCc1ccc(O)cc1 [Hordenine]	> 50 µM
O=C1CCCCC1C1CCCCC1 (stereo not shown) [1,1'-Bi(cyclohexyl)-2-one]	> 90 µM
Cc1nn(C)c(Oc2ccccc2)c1C=NOCc1ccc(C(=O)OC(C)(C)C)cc1 [Fenpyroximate (Z,E)]	59.7 µM
O=C(O)CNC(=O)c1ccc(CO)o1 [5-(Hydroxymethyl-2-furoyl)glycine]	> 90 µM
CO[C@H](C(=O)[C@@H](O)[C@@H](C)O)[C@@H]1Cc2cc3cc(O[C@H]4C[C@@H](O[C@H]5C[C@@H](O)[C@H](O)[C@@H](C)O5)[C@H](O)[C@@H](C)O4)c(C)c(O)c3c(O)c2C(=O)[C@H]1O[C@H]1C[C@@H](O[C@H]2C[C@@H](O[C@H]3C[C@](C)(O)[C@H](O)[C@@H](C)O3)[C@@H](O)[C@@H](C)O2)[C@H](O)[C@@H](C)O1 [Plicamycin]	0.413 µM
CC(C(=O)O)c1ccc2c(c1)Cc1cccnc1O2 (stereo not shown) [Pranoprofen]	> 50 µM
Clc1cc(Cl)c2c(c1)N=C1CCCCCN1C2 [1,3-dichloro-6,7,8,9,10,12-hexahydroazepino[2,1-b]quinazoline hydrochloride (1:1)]	> 50 µM
CCCCNC(=O)n1c(NC(=O)OC)nc2ccccc21 [Benomyl]	> 90 µM
CC(=O)Oc1cc(C(F)(F)F)ccc1C(=O)O [Triflusal]	> 20 µM
N[C@@H](C=O)[C@@H](O)[C@@H](O)[C@H](O)CO [Galactosamine hydrochloride]	> 90 µM
C[C@@H]1O[C@@H](OC[C@H]2O[C@@H](Oc3c(-c4ccc(O)c(O)c4)oc4cc(O)cc(O)c4c3=O)[C@H](O)[C@@H](O)[C@@H]2O)[C@H](O)[C@H](O)[C@H]1O [Rutin]	57.3 µM
CC1CCCO1 (stereo not shown) [2-Methyltetrahydrofuran]	> 90 µM

Structure (SMILES)	CC50 at 24 h
CNCC(O)c1ccc(OC(=O)C(C)(C)C)c(OC(=O)C(C)(C)C)c1 (stereo not shown) [Dipivefrin hydrochloride]	10.3 µM
CC(C)(C)CC(C)(C)c1cc(Cc2cc(C(C)(C)CC(C)(C)C)cc(-n3nc4ccccc4n3)c2O)c(O)c(-n2nc3ccccc3n2)c1 [Bisoctrizole]	> 50 µM
O=C(O)c1ccc(S(=O)(=O)N(Cl)Cl)cc1 [Halazone]	> 90 µM
Cc1cc(C(=C2C=CC(=Nc3ccc(S(=O)(=O)O)cc3)C=C2)c2ccc(Nc3ccc(S(=O)(=O)O)cc3)cc2)cc(S(=O)(=O)O)c1N [C.I. Acid Blue 22]	> 60 µM
Cc1oc(=O)oc1CN1CCN(c2cc3c(cc2F)c(=O)c(C(=O)O)c2n3C(C)S2)CC1 (stereo not shown) [Prulifloxacin]	> 50 µM
COc1cc(OC)cc(OC)c1 [1,3,5-Trimethoxybenzene]	> 50 µM
COc1ccc(/C=C/C(=O)Nc2ccccc2C(=O)O)cc1OC [Tranilast]	> 50 µM
CCCCCC[C@@H](O)C/C=C\CCCCCCCC(=O)OCC(O)CO (stereo partly shown) [Glyceryl monoricinoleate]	> 90 µM
C=CCOc1c(Br)cc(Br)cc1Br [1,3,5-Tribromo-2-(prop-2-en-1-yloxy)benzene]	> 90 µM
CCCCC1CCCCC(=O)O1 (stereo not shown) [epsilon-Decalactone]	> 90 µM
O=[N+]([O-])c1c(Cl)cccc1-c1c[nH]cc1Cl [Pyrrolnitrin]	23.7 µM
c1ccc(-n2cnnn2)cc1 [1-Phenyl-1H-tetrazole]	> 50 µM
CCc1occc(=O)c1O [2-Ethyl-3-hydroxy-4H-pyran-4-one]	> 90 µM
c1ccc2c(c1)[nH]c1cnccc12 [Norharman]	> 90 µM
Cc1ccc(S(=O)(=O)NC(=O)NN2CC3CCC[C@@H]3C2)cc1 (stereo in doubt) [Gliclazide]	> 20 µM
COc1cnc(OC)n2nc(NS(=O)(=O)c3c(OCC(F)F)cccc3C(F)(F)F)nc12 [Penoxsulam]	> 90 µM
CCCCCCCCC(=O)NCc1ccc(O)c(OC)c1 [Nonivamide]	> 90 µM
CCCN(CCC)C(=O)CN [C.I. Solvent Black 5]	3.55 µM
O=S(=O)(O)c1cc(I)c(O)c2ncccc12 [Loretin]	> 50 µM
O=C(O)/C=C\C(=O)Nc1ccc(S(=O)(=O)Nc2nccs2)cc1 [Maleylsulfathiazole]	> 50 µM
Cc1cc(C(C)(C)c2ccc(O)c(C)c2)ccc1O [3,3'-Dimethylbisphenol A]	> 90 µM
NC(=O)NO [Hydroxyurea]	> 90 µM
CC(=O)N(CC(O)CO)c1c(I)c(C(=O)NCCO)c(I)c(C(=O)NCC(O)CO)c1I (stereo not shown) [Ioxilan]	> 50 µM
COc1cc([S+](C)[O-])ccc1-c1nc2ncccc2[nH]1 (stereo not shown) [Sulmazole]	> 50 µM

Structure (SMILES)	CC50 at 24 h
CC(CC(=O)O)CC(C)(C)C (stereo not shown) [3,5,5-Trimethylhexanoic acid]	> 90 µM
CCCCc1cc2ccccc2c(OCCN(C)C)n1 [Dimethisoquin hydrochloride]	7.4 µM
O=C1NC2NC(=O)NC2N1 (stereo not shown) [Glycoluril]	> 90 µM
CC(C)(C)OC(=O)c1ccccc1C(=O)O [tert-Butyl hydrogen phthalate]	> 90 µM
O=C(O)CCN(C1(C(=O)NO)CCCC1)S(=O)(=O)c1ccc(Oc2ccc(F)cc2)cc1 [CP-471358]	> 90 µM
CCS(=O)(=O)CCn1c([N+](=O)[O-])cnc1C [Tinidazole]	> 20 µM
COc1cc(Cl)ccc1Cl [2,5-Dichloroanisole]	> 90 µM
CCCCCOC(=O)c1ccc(O)cc1 [Pentylparaben]	67.4 µM
CCC1(c2ccccc2)C(=O)NC(=O)N(C(=O)c2ccccc2)C1=O (stereo not shown) [Benzobarbital]	> 50 µM
O=c1ccn(C2OC(COP(=O)(O)OC3C(CO)OC(n4ccc(=O)[nH]c4=O)C3O)C(O)C2O)c(=O)[nH]1 (stereo not shown) [Uricase from Bacillus fastidiosus]	> 50 µM
C=C(C)OC(C)=O [Isopropenyl acetate]	> 90 µM
CC(C)(C)c1cc(CCC(=O)OCC(COC(=O)CCc2cc(C(C)(C)C)c(O)c(C(C)(C)C)c2)(COC(=O)CCc2cc(C(C)(C)C)c(O)c(C(C)(C)C)c2)COC(=O)CCc2cc(C(C)(C)C)c(O)c(C(C)(C)C)c2)cc(C(C)(C)C)c1O [Irganox 1010]	> 40 µM
COc1ccc(Nc2ccccc2)c(C)c1 [4-Methoxy-2-methyl-N-phenylaniline]	> 90 µM
O=C(O)c1cc(/N=N/c2ccc(O)c(C(=O)O)c2)ccc1O [Olsalazine sodium]	> 50 µM
CCCCC/C=C\C/C=C\C/C=C\CCCCC(=O)O [Gamolenic acid]	> 50 µM
COc1ccc(OC)cc1 [Hydroquinone dimethyl ether]	> 90 µM
Cc1ccc(Br)cc1 [4-Bromotoluene]	> 90 µM
CCN(CC)CCNC(=O)COc1ccc(Cl)cc1 [Clofexamide]	> 50 µM
FC(F)(F)c1cccc(Cl)c1 [3-Chlorobenzotrifluoride]	> 90 µM
Cc1nc(C)nc(N2C[C@@H](C)N(c3ccnc([C@@H](C)O)n3)[C@@H](C)C2)n1 [CP-642931]	> 50 µM
C=C(C#N)C(=O)OCC [Ethyl cyanoacrylate]	> 90 µM
CCc1cccc(CC)c1N [2,6-Diethylaniline]	> 90 µM

same assay, conditions: rat, gh3-tre-luc cells, AC50 (uM) modified / 1000, Tox21_110001=Tox21_112294; viability, 1 nM T3 present, 24 h

Structure (SMILES)	CC50 at 24 h
C#CC(C)(O)CC (stereo not shown) [3-Methyl-1-pentyn-3-ol]	> 50 µM

same assay, conditions: rat, gh3-tre-luc cells, AC50 (uM) modified / 1000, Tox21_110001=Tox21_200670; viability, 1 nM T3 present, 24 h

Structure (SMILES)	CC50 at 24 h
O=[N+]([O-])c1ccc(Cl)c(Cl)c1Cl [2,3,4-Trichloronitrobenzene]	> 90 µM

same assay, conditions: rat, gh3-tre-luc cells, AC50 (uM) modified / 1000, Tox21_110001=Tox21_200937; viability, 1 nM T3 present, 24 h

Structure (SMILES)	CC50 at 24 h
O=[N+]([O-])c1cc(Cl)c(Cl)cc1Cl [2,4,5-Trichloronitrobenzene]	> 90 µM

same assay, conditions: rat, gh3-tre-luc cells, AC50 (uM) modified / 1000, Tox21_110001=Tox21_201057; viability, 1 nM T3 present, 24 h

Structure (SMILES)	CC50 at 24 h
c1cc2c3c(c1)ccc1cccc(c13)C2 [4H-Cyclopenta(def)phenanthrene]	> 90 µM

same assay, conditions: rat, gh3-tre-luc cells, AC50 (uM) modified / 1000, Tox21_110001=Tox21_202291; viability, 1 nM T3 present, 24 h

Structure (SMILES)	CC50 at 24 h
O=[N+]([O-])c1ccc(Cl)cc1 [1-Chloro-4-nitrobenzene]	> 90 µM

same assay, conditions: rat, gh3-tre-luc cells, AC50 (uM) modified / 1000, Tox21_110001=Tox21_202716; viability, 1 nM T3 present, 24 h

Structure (SMILES)	CC50 at 24 h
BrCCCBr [1,3-Dibromopropane]	> 100 µM

same assay, conditions: rat, gh3-tre-luc cells, AC50 (uM) modified / 1000, Tox21_110001=Tox21_301354; viability, 1 nM T3 present, 24 h

Structure (SMILES)	CC50 at 24 h
O=[N+]([O-])c1ccc(Oc2ccc(C(F)(F)F)cc2[N+](=O)[O-])cc1 [Fluorodifen]	> 90 µM

same assay, conditions: rat, gh3-tre-luc cells, AC50 (uM) modified / 1000, Tox21_110001=Tox21_302063; viability, 1 nM T3 present, 24 h

Structure (SMILES)	CC50 at 24 h
CCOC(=O)CC(=O)CCl [Ethyl 4-chloro-3-oxobutanoate]	76.9 µM

same assay, conditions: rat, gh3-tre-luc cells, AC50 (uM) modified / 1000, Tox21_110001=Tox21_302420; viability, 1 nM T3 present, 24 h

Structure (SMILES)	CC50 at 24 h
CNC(=O)Oc1ccccc1C1OCCO1 [Dioxacarb]	> 90 µM
